For assay [1], the system named is LAR TNBC cell lines. Kind of assay: Cell proliferation/viability assay (alamarBlue) and IC50 determination. Conditions: 72 hours. It is filed as cell-based, human. How it is done: (§1) Cell proliferation/viability assays and IC50 determinations. All cell lines and culture conditions used can be found in Supplemental Methods (Table 5). Short tandem repeat (STR) DNA fingerprinting analysis was performed on all TNBC cell lines used in this study (Cell Line Genetics). […] Breast cancer cell lines and HMECs were seeded (3,000-10,000 cells) in quadruplicate wells in 96-well plates. […] Medium was then replaced with either fresh medium (control) or medium containing half-log serial dilutions of the following drugs: 0.3-30 μM olaparib (ChemieTek), 0.3-30 μM veliparib (ChemieTek), 1-100 μM bicalutamide (IPR Pharmaceutical), 0.3-30 μM cisplatin (APP Pharmaceutical), 3-300 nM NVP-BEZ235 (Chemdea), 10-1000 nM 17-DMAG (ChemieTek), and 0.1-10 μM dasatinib (LC Laboratories). Viability was determined from measuring fluorescent intensity after metabolic reduction of alamarBlue in the presence/absence of the drug after 72 hours. Viability assays were performed in triplicate, and replicates were normalized to untreated wells. […] For analysis of cell-line drug assays, data generated from the different cell lines representative of TNBC subtypes were compared using the nonparametric Mann-Whitney U test. All analyses and graphic representations were performed using Prism software (version 4.0c; GraphPad Software), and values are represented as the mean±SEM.
In general terms: Alamar Blue is a resazurin reagent that responds to reducing activity.

Assay [2] concerns basal-like (BL1 and BL2) TNBC cell lines. Described as above. It is filed as cell-based, human. As for the experimental part:
as §1

The test system of assay [3] is mesenchymal-like (M and MSL) TNBC cell lines. Described as above. It is filed as cell-based, human. As to conditions: 72 hours. As for the experimental part: (§2) Cell proliferation/viability assays and IC50 determinations. All cell lines and culture conditions used can be found in Supplemental Methods (Table 5). Short tandem repeat (STR) DNA fingerprinting analysis was performed on all TNBC cell lines used in this study (Cell Line Genetics). […] Breast cancer cell lines and HMECs were seeded (3,000-10,000 cells) in quadruplicate wells in 96-well plates. […] Viability was determined from measuring fluorescent intensity after metabolic reduction of alamarBlue in the presence/absence of the drug after 72 hours. Viability assays were performed in triplicate, and replicates were normalized to untreated wells. […] For analysis of cell-line drug assays, data generated from the different cell lines representative of TNBC subtypes were compared using the nonparametric Mann-Whitney U test. All analyses and graphic representations were performed using Prism software (version 4.0c; GraphPad Software), and values are represented as the mean±SEM.

The subject of assay [4] is mesenchymal-like TNBC cell lines. Kind of assay: Cell proliferation/viability assay and IC50 determination (Example 3). The assay is classed as cell-based, human. Conditions: 72 hours; basal-like, mesenchymal-like and normal cells compared. As for the experimental part: Cell proliferation/viability assays and IC50 determinations. All cell lines were maintained in culture as previously described herein. Breast cancer cell lines and HMECs were seeded (3,000-10,000 cells) in quadruplicate wells in 96-well plates. Media was then replaced with either fresh media (control) or media containing half-log serial dilutions of the following drugs: Sorafenib, OSi-906, BMS-754807 and PF2341066 purchased from Selleck Chemicals (Houston, TX) Viability was determined from measuring fluorescent intensity after metabolic reduction of Alamar Blue in the presence/absence of drug after 72 hours. Viability assays were performed in triplicate and replicates were normalized to untreated wells. Inhibitory concentration (IC50) values were determined after double-log transformation of dose response curves.

Assay [5] relates to activated caspase 3/7 in AR-positive TNBC cell lines. Kind of assay: Caspase 3/7 activity (Caspase-Glo). The assay is classed as cell-based, human. Conditions: 48 h; ADR 3 μM, bicalutamide 50 μM, GDC-0941 3 μM, GDC-0980 1 μM. As for the experimental part:
Cell lines were seeded in triplicate in 96-well plates. Media was removed and replaced with media containing vehicle (control) or indicated drugs. After 48 hrs, apoptosis was determined by measuring luciferase from activated caspase 3/7 upon addition of Caspase-Glo reagent (Promega, Madison, WI). Relative levels of caspase activity were normalized to viable cell number determined by metabolic reduction of Alamar blue.

The test system of assay [6] is TNBC cell lines. Nature of the assay: Cell proliferation/viability assay (alamarBlue), panel of TNBC cell lines (Example 1). The assay is classed as cell-based, human. As to conditions: Homo sapiens; majority of TNBC cell lines; read-out: IC50 not achieved using the highest dose. How it is done: as §2
In assay [7] the test system is MDA-MB-453 cells. Kind of assay: Sub-G1 (sub 2N DNA) fraction by FACs analysis. Conditions: 48 h after treatment; increase from 5.25%. It is filed as cell-based, human. How it is done:
FIGS. 31A-31B: Combined inhibition of AR and PI3K increases apoptotic cell death in AR+TNBC cell lines. (31A) Bar graphs display relative caspase 3/7 activity (RLU) normalized to viable cell number 48 hrs after treatment with vehicle, positive control (3 μM adriamycin, ADR), 50 μM bicalutamide (CDX) and 3 μM GDC-0941 or 1 μM GDC-0980 alone or in combination with CDX. (31B) Histograms show representative cell cycle analysis of MDA-MB-453 cells treated with similar conditions as above. Indicated percentages represent the fraction of hypodiploid DNA (sub-G1), indicative of late stage apoptotic DNA fragmentation.
In addition to caspase activation, the percentage of sub 2N DNA (sub-G1)-containing cells (indicative of late stage apoptotic DNA fragmentation) was quantitated by FACs analysis. […] Therefore, the decreased viability of AR-positive TNBC cell lines treated with a combination of AR and PI3K inhibitors can be, in part, attributed to apoptosis.

In assay [8] the test system is BRCA1-null cell line HCC1937. Kind of assay: Cell proliferation/viability assay (alamarBlue) and IC50 determination. The assay is classed as cell-based. As to conditions: Homo sapiens, 72 hours, viability. How it is done:
as §1

Assay [9] deals with BRCA1-mutant MDA-MB-436 cell line. The description is as above. The assay is classed as cell-based. Conditions: Homo sapiens, 72 hours, viability. How it is done: as §1
The subject of assay [10] is BRCA2-mutant cell line HCC1599. Described as above. The assay is classed as cell-based. Conditions: Homo sapiens, 72 hours, viability. As for the experimental part:
as §1

Molecules are shown by their SMILES. Like-named read-outs stand apart in the source and are kept apart here.

For the compound `CO[C@H]1/C=C\C=C(/C)C(=O)NC2=CC(=O)C(NCCN(C)C)=C(C[C@@H](C)C[C@H](OC)[C@H](O)[C@@H](C)/C=C(\C)[C@@H]1OC(N)=O)C2=O` [17-DMAG, 17-dimethylaminoethylamino-17-demethoxy-geldanamycin], the IC50 in assay [1] (LAR cell lines) worked out at 0.016 µM; in [2] (72 hours, read-out: average IC50) it was 0.081 µM; in assay [3] (mesenchymal-like cell lines), 0.117 µM.

Regarding `C[C@@]1(C(=O)Nc2ccc(F)nc2)CCCN1c1nc(Nc2cc(C3CC3)n[nH]2)c2cccn2n1` [BMS-754807], the “viability (half-maximal inhibitory concentration) across TNBC subtypes” value in assay [4] was “selectively inhibits viability of mesenchymal-like TNBC cell lines”.

Consider `C[C@]1(O)C[C@@H](c2nc(-c3ccc4ccc(-c5ccccc5)nc4c3)c3c(N)nccn32)C1` [OSI-906], for which, in assay [4], the “viability (half-maximal inhibitory concentration) across TNBC subtypes” value is recorded as “selectively inhibits viability of mesenchymal-like TNBC cell lines”.

Turning to `C[C@@H](Oc1cc(-c2cnn(C3CCNCC3)c2)cnc1N)c1c(Cl)ccc(F)c1Cl` [PF2341066], the “viability (half-maximal inhibitory concentration) across TNBC subtypes” value in assay [4] is reported as “selectively inhibits viability of mesenchymal-like TNBC cell lines”.

As to `COc1cccc2c1C(=O)c1c(O)c3c(c(O)c1C2=O)C[C@@](O)(C(=O)CO)C[C@@H]3O[C@H]1C[C@H](N)[C@H](O)[C@H](C)O1` [adriamycin], the “caspase 3/7 activation” value in assay [5] is on record as “robust caspase activation”.

Turning to `CC(O)(CS(=O)(=O)c1ccc(F)cc1)C(=O)Nc1ccc(C#N)c(C(F)(F)F)c1` (stereo not drawn) [bicalutamide], the IC50 in assay [1] (Homo sapiens, LAR lines) was 227 µM; in assay [2] (Homo sapiens, 72 h, read-out: IC50) it was above 600 µM; in [6], above 500 µM; in [3] (Homo sapiens, subset of mesenchymal-like cell lines that express low levels of AR (HS578T, BT549, CAL-51, MDA-MB-231)), 361 µM. In assay [7], the sub-G1 fraction is 18.44%.

Turning to `Cc1nc(Nc2ncc(C(=O)Nc3c(C)cccc3Cl)s2)cc(N2CCN(CCO)CC2)n1` [dasatinib], the IC50 came out at 88 µM in assay [1] (Homo sapiens, LAR lines); 22 µM in [3] (Homo sapiens, mesenchymal-like subtypes (M and MSL)).

For the compound `O=C(c1cc(Cc2n[nH]c(=O)c3ccccc23)ccc1F)N1CCN(C(=O)C2CC2)CC1` [olaparib], the values for the concentration for half-maximal inhibition (IC50) in assay [8], in [9] and in assay [10] were above 100 µM, 14 µM and above 100 µM, respectively.

Take `CNC(=O)c1cc(Oc2ccc(NC(=O)Nc3ccc(Cl)c(C(F)(F)F)c3)cc2)ccn1` [sorafenib]: the “viability (half-maximal inhibitory concentration) across TNBC subtypes” value in assay [4] is “selectively inhibits viability of mesenchymal-like TNBC cell lines”.

`C[C@]1(c2nc3c(C(N)=O)cccc3[nH]2)CCCN1` [veliparib]: the values for the concentration for half-maximal inhibition (IC50) in assay [8], in assay [9] and in assay [10] were 4 µM, 18 µM and above 30 µM, respectively.

Broadly, the IC50 is the concentration that inhibits the measured activity by half.

(Values after US11788147B2, “Markers of triple-negative breast cancer and uses thereof” (Vanderbilt University, priority 2011, dated 2023).)
